pEC50, pIC50: −log10 of the molar value. Where two headings read alike, the source gives them in different places. Positions of bridges follow the written chain, without caps; N, C: chain ends. Non-standard residues stand in square brackets, D forms with d. Residues, ends and D or L forms follow the SMILES beside them. NMeF = CN[C@@H](Cc1ccccc1)C(=O)O; NMeN = CN[C@@H](CC(N)=O)C(=O)O; NMeC = CN[C@@H](CS)C(=O)O; Nphe = O=C(O)CNCc1ccccc1
Key:
AgrC-II [1] = biological target: T1, AgrC-II (Staphylococcus aureus, UniProt O33587); assay type: cell-based, S. aureus; settings: for pIC50: read-out: AgrC-II IC50, fluorescence reporter strain
T1 sequence (O33587 1-437): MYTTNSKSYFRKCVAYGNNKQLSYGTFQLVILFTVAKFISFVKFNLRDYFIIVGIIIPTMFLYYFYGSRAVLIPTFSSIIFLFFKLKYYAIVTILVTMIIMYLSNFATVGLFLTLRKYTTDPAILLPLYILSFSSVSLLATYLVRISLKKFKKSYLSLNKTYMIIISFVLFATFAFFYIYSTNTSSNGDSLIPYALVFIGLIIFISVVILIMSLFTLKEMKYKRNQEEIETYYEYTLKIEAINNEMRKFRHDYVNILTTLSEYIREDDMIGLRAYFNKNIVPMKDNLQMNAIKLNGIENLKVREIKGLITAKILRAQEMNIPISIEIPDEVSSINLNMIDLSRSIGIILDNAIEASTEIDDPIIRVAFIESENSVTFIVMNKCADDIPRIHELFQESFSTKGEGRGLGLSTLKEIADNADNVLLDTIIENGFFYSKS

AgrC-IV [2] = biological target: T2, AgrC-IV (Staphylococcus aureus, UniProt Q309Z2); assay type: cell-based, S. aureus; settings: for pIC50: read-out: AgrC-IV IC50, fluorescence reporter strain
T2 sequence (Q309Z2 1-430): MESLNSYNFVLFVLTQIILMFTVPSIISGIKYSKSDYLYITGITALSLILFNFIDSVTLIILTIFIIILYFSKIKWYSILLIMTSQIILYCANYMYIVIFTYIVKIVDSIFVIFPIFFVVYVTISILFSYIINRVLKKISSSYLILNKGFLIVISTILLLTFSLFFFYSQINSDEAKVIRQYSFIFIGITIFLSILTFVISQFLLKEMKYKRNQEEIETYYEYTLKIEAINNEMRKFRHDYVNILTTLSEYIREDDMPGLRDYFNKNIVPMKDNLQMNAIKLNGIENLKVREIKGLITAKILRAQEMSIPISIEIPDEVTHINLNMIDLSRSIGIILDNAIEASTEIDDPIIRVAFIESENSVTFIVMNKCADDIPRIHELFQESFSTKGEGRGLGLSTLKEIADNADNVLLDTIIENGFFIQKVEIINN

AgrC-III [3] = biological target: T3, AgrC-III (Staphylococcus aureus, UniProt O33590); test: Hemolysis assay, wild-type group-III strain MN8, rabbit red blood cells
T3 sequence (O33590 1-425): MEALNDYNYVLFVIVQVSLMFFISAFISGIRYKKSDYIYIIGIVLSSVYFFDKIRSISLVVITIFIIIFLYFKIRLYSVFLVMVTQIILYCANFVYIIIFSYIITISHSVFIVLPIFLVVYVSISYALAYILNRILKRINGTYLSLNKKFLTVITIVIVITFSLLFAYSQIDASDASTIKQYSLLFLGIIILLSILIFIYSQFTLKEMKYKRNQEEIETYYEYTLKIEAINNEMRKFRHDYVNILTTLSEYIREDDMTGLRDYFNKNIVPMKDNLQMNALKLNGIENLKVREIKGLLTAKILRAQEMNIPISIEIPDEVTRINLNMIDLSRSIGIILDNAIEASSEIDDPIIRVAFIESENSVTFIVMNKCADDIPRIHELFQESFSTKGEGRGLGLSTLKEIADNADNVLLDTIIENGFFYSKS

[4] = system: TSST-1 production in wild-type group-III S. aureus (MN8); assay type: cell-based
AgrC-IV [5] = biological target: T2, AgrC-IV; test: Hemolysis assay, wild-type group-IV strain RN4850, rabbit red blood cells; settings: for pIC50: read-out: AgrC-IV IC50, hemolysis assay, 200 fM − 10 μM
AgrC-III [6] = biological target: T3, AgrC-III; assay type: cell-based, S. aureus; settings: for pIC50: read-out: AgrC-III IC50, fluorescence reporter strain
AgrC-I [7] = biological target: T4, AgrC-I (Staphylococcus aureus, UniProt O07911); assay type: cell-based, S. aureus; settings: for pIC50: read-out: AgrC-I IC50
T4 sequence (O07911 1-430): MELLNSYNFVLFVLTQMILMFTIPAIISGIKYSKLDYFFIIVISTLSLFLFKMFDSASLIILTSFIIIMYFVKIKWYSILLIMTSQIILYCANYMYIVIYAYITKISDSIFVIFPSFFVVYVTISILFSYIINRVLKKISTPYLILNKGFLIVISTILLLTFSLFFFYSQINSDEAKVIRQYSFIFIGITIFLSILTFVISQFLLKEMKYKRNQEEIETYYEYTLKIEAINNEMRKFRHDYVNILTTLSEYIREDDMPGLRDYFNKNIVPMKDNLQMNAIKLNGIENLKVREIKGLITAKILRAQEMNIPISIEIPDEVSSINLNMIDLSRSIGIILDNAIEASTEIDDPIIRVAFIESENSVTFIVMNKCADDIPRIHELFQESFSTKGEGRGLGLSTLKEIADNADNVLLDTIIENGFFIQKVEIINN

AgrC-II [8] = biological target: T1, AgrC-II; test: Hemolysis assay, wild-type group-II strain RN6923, rabbit red blood cells; settings: for pIC50: read-out: AgrC-II IC50, selected second-generation analogues, hemolysis assay, 200 fM − 10 μM
AgrC-I [9] = biological target: T4, AgrC-I; test: Hemolysis assay, wild-type group-I strain RN6390B, rabbit red blood cells; settings: read-out: AgrC-I IC50; selected second-generation analogues, hemolysis assay; 200 fM − 10 μM
AgrC-III [10] = biological target: T3, AgrC-III; settings: read-out: AgrC-III EC50; β-lactamase reporter strain; 2.5 pM − 10 μM
[11] = second-generation analogues, 200 fM − 10 μM
[12] = read-out: AgrC-III IC50, selected second-generation analogues, 200 fM − 10 μM
[13] = selected second-generation analogues
[14] = second-generation analogues, fluorescence reporter strain, 200 fM − 10 μM
[15] = AIPs tested over 200 fM − 10 μM or (b1) 2.5 pM − 10 μM, triplicate
[16] = fluorescence reporter strain, AIPs tested over 200 fM − 10 μM or (b1) 2.5 pM − 10 μM, triplicate

SMILES	pIC50 (AgrC-I [9])	pIC50 (AgrC-II [1]; [11])	pIC50 (AgrC-IV [2]; [11])	pIC50 (AgrC-III [3]; [12])	pIC50 (AgrC-IV [5]; [13])	pIC50 (AgrC-III [6]; [11])	pIC50 (AgrC-II [8])	pEC50 (AgrC-III [10])	pIC50 (AgrC-II [1]; [15])	pIC50 (AgrC-IV [2]; [15])	pIC50 (AgrC-I [7]; [16])	further results
CC[C@H](C)[C@H](N)C(=O)N[C@@H](CC(N)=O)C(=O)N[C@H]1CSC(=O)[C@H](CC(C)C)NC(=O)[C@H](CC(C)C)NC(=O)[C@H](Cc2ccccc2)NC(=O)[C@H](C)NC1=O [AIP-III D4A, I-N-(C-A-F-L-L)] (H-INCAFLL; thioester 3-C)	–	–	–	–	–	–	–	–	–	–	–	fold increase of inhibitory activity relative to AIP-III (AgrC-II [1]; gfp reporter, group-II): at least 10 fold; fold more active inhibitor than tAIP-I D2A (AgrC-II [1]; gfp reporter, group-II): ~10 fold; fold increase of inhibitory activity relative to AIP-III (AgrC-IV [2]; gfp reporter, group-IV): at least 10 fold; fold more active inhibitor than tAIP-I D2A (AgrC-IV [2]; gfp reporter, group-IV): ~10 fold; pIC50 (AgrC-III [3]; read-out: AgrC-III IC50, 200 fM − 10 μM): 9.79; reduction of TSST-1 levels [4]: 80%; fold more active than tAIP-I D2A in the hemolysis assay (AgrC-IV [5]; group IV strain): three; pIC50 (AgrC-IV [5]): 9.97; fold increase of inhibitory activity relative to AIP-III (AgrC-III [6]; gfp reporter, group-III): at least 10 fold; fold more active inhibitor than tAIP-I D2A (AgrC-III [6]; gfp reporter, group-III): ~10 fold; fold increase of inhibitory activity relative to AIP-III (AgrC-I [7]; gfp reporter, group-I): at least 10 fold; fold more active inhibitor than tAIP-I D2A (AgrC-I [7]; gfp reporter, group-I): ~10 fold; fold more active than tAIP-I D2A in the hemolysis assay (AgrC-II [8]; group-II strain): 40 fold
CC[C@H](C)[C@H](N)C(=O)N[C@@H](C)C(=O)N[C@H]1CSC(=O)[C@H](CC(C)C)NC(=O)[C@H](CC(C)C)NC(=O)[C@H](Cc2ccccc2)NC(=O)[C@H](C)NC1=O [AIP-III N2A/D4A, I-A-(C-A-F-L-L)] (H-IACAFLL; thioester 3-C)	10.44	9.69	10.66	9.67	9.91	10.18	10.18	–	–	–	–	pIC50 (AgrC-I [7]; [14]): 9.48
CC[C@H](C)[C@H](N)C(=O)N[C@@H](CC(N)=O)C(=O)N(C)[C@H]1CSC(=O)[C@H](CC(C)C)NC(=O)[C@H](CC(C)C)NC(=O)[C@H](Cc2ccccc2)NC(=O)[C@H](CC(=O)O)NC1=O [AIP-III N-Me-C3, I-N-(NMeC-D-F-L-L)] (H-IN[NMeC]DFLL; thioester 3-C)	–	–	–	–	–	–	–	< 6.00	6.87	6.97	6.86	–
CC[C@H](C)[C@H](N)C(=O)N[C@@H](CC(N)=O)C(=O)N[C@H]1CSC(=O)[C@H](CC(C)C)NC(=O)[C@H](CC(C)C)NC(=O)[C@H](Cc2ccccc2)N(C)C(=O)[C@H](CC(=O)O)NC1=O [AIP-III N-Me-F5, I-N-(C-D-NMeF-L-L)] (H-INCD[NMeF]LL; thioester 3-C)	–	–	–	–	–	–	–	7.30	8.71	8.18	8.35	–
CC[C@H](C)[C@H](N)C(=O)N(C)[C@@H](CC(N)=O)C(=O)N[C@H]1CSC(=O)[C@H](CC(C)C)NC(=O)[C@H](CC(C)C)NC(=O)[C@H](Cc2ccccc2)NC(=O)[C@H](CC(=O)O)NC1=O [AIP-III N-Me-N2, I-NMeN-(C-D-F-L-L)] (H-I[NMeN]CDFLL; thioester 3-C)	–	–	–	–	–	–	–	7.72	8.50	8.02	8.09	–
CC[C@H](C)[C@H](N)C(=O)N[C@@H](CC(N)=O)C(=O)N[C@H]1CSC(=O)[C@H](CC(C)C)NC(=O)[C@H](CC(C)C)NC(=O)CN(Cc2ccccc2)C(=O)[C@H](CC(=O)O)NC1=O [AIP-III nF5, I-N-(C-D-nF-L-L)] (H-INCD[Nphe]LL; thioester 3-C)	–	–	–	–	–	–	–	6.69	7.12	9.08	7.86	fold reduction of potency for AgrC-II versus AIP-III (AgrC-II [1]; gfp reporter): 13 fold; fold increase of inhibitory activity relative to AIP-III (AgrC-IV [2]; gfp reporter, group-IV): 10 fold; pIC50 (AgrC-III [6]; [15]): < 6.00
CC(=O)N[C@H]1CSC(=O)[C@H](CC(C)C)NC(=O)[C@H](CC(C)C)NC(=O)[C@H](Cc2c[nH]c3ccccc23)NC(=O)[C@H](C)NC1=O [Ac-(C-A-W-L-L)] (Ac-CAWLL; thioester 1-C)	9.33	8.72	10.44	8.97	9.71	9.29	9.90	–	–	–	–	pIC50 (AgrC-I [7]; [14]): 9.04
CC(=O)N[C@H]1CSC(=O)[C@H](CC(C)C)NC(=O)[C@H](CC(C)C)NC(=O)[C@H](Cc2ccccc2)NC(=O)[C@H](C)NC1=O [tAIP-III D2A, Ac-(C-A-F-L-L)] (Ac-CAFLL; thioester 1-C)	9.48	9.05	–	9.71	9.51	–	9.15	–	–	–	–	reduction of TSST-1 levels [4]: 80%
CC(=O)N[C@H]1CSC(=O)[C@H](CC(C)C)NC(=O)[C@H](CC(C)C)NC(=O)[C@H](Cc2ccc(O)cc2)NC(=O)[C@H](C)NC1=O [tAIP-III D2A/F3Y, Ac-(C-A-Y-L-L)] (Ac-CAYLL; thioester 1-C)	9.55	8.94	10.51	9.58	9.87	9.41	9.69	–	–	–	–	pIC50 (AgrC-I [7]): 9.55

Reference: patent US20200140489A1 (priority 2013, published 2020)
